Laboratory results from patent publication US20260315609A1, “MIXED VASOPRESSIN RECEPTOR AGONIST-ANTAGONIST FOR TREATING END-STAGE LIVER DISEASE AND COMPLICATIONS ASSOCIATED THEREOF” (FERRING B.V., priority 2022, published 2026).
Read-outs that look alike come from different tables or passages of the source. Starred links: 1 amine or outer side, 2 acyl side, 3 side chain; linkers in the order of their positions; H or OH if unused. Positions of bridges follow the written chain, without caps; N, C: chain ends. Non-standard residues stand in square brackets, D forms with d. Residues, ends and D or L forms follow the SMILES beside them. Chains are numbered I, II in the order given. *: point of attachment. isoGln = NC(=O)[C@H](CCC(=O)[*:2])N[*:1]; εLys = N[C@@H](CCCCN[*:1])C(=O)[*:2]; Dab = NCC[C@H](N)C(=O)O; PhAc = O=C(Cc1ccccc1)*

Key:
[1] = test system: vasopressin V1a receptor; assay: Pharmacodynamics (blood pressure, MAP, pulse rate, peripheral blood flow, cardiac output, urine volume) in healthy subjects; type: in vivo, human
Method: In some embodiments, MAP is calculated from measurements of systolic blood pressure and diastolic blood pressure. In some embodiments, MAP is calculated when taking into account the pressure during a single cardiac cycle. In some embodiments, MAP is ⅓ (systolic blood pressure−diastolic blood pressure)+diastolic blood pressure.
(§1) In some instances, endpoints of the study were: vital signs (e.g., supine blood pressure, pulse, and body temperature), electrocardiogram (ECG) (e.g., intervals, rhythm, and morphology), cardiac function (e.g., cardiac output using echocardiography), peripheral blood flow/tissue perfusion (e.g., by skin color), venous blood gases (e.g., lactate), urinary output, clinical chemistry, hematology, hemostasis, and urinalysis, adverse events (AEs) (e.g., type, frequency, and intensity), pharmacokinetics (e.g., AUC, AUCt, AUCτ, % Extrap AUC, Cmax, tmax, CL, Vz, t1/2, MRT, Vss, F, Ae, and CLR), and metabolite pattern in plasma and urine.

[2] = PK of Compound 1, 6-hour intravenous infusion in healthy men and women (Period 1); type: in vivo, human
Method: The administered volume was recorded for each subject.
as §1

[3] = test system: CCl4-induced rat model of cirrhosis and ascites; assay: CCl4-induced cirrhosis and ascites rats, cohort 1 (SC bolus b.i.d. 3 days), renal excretory function; type: in vivo
Method: Animals: 90 male Wistar rats (Charles River Laboratories, Espana S.A) weighing 200-220 grams at the time of receipt were subjected to a cirrhosis induction program; high dose CCl4 was administered by inhalation twice weekly (Monday and Friday) and phenobarbital (0.3 g/L) was added to drinking water. In some instances, liver damage in this model is caused by hepatotoxic CCl4 metabolites produced in the liver. In some instances, phenobarbital induction of the microsomal enzyme oxidizing system exaggerates the intensity of the hepatic necrosis. The data was collected from the treatment of 44 cirrhotic rats with ascites. Animals were allowed free access to food and water throughout the study.
The study consisted of 3 treatment cohorts, as detailed in Table 10. Animals developing and maintaining ascites for 2 weeks were randomly assigned to treatment groups. Ringer Braun saline solution was used as vehicle. IV bolus were administered via femoral veins.
This study was performed at the Hospital Clinic (Barcelona, Spain). Measurements and/or samples were collected for additional experimental parameters (e.g., water intake, urine osmolality, serum samples, tissue samples, etc.) but data are not reported.
Cohort 1: Animals were placed into metabolic cages for continuous urine collection and administered 100 μg/kg FE 204205 or vehicle by SC bolus for 3 days (see Table 3 for details). Measurements of body weight, urine volume, and urine sodium content were taken prior to treatment (Day 0) and daily over the course of treatment administration. After 3 days of treatment, the volume of ascites was measured by aspiration and the animals were sacrificed by isofluorane overdose.

CC[C@H](C)[C@@H]1NC(=O)[C@H](Cc2ccccc2)NC(=O)[C@@H](N)CSSC[C@@H](C(=O)N2CCC[C@H]2C(=O)N[C@@H](CCNC(=O)[C@@H](N)CCCCNC(=O)[C@H](CCCCNC(C)=O)NC(=O)CC[C@H](NC(=O)[C@H](CCCNC(=N)N)NC(=O)[C@@H]2CCCN2C(=O)[C@H](C)NC(=O)[C@H](CC(N)=O)NC(=O)[C@H](CCC(N)=O)NC(=O)[C@H](Cc2ccccc2)NC(=O)[C@@H](Cc2ccc(OC)cc2)NC(=O)Cc2ccccc2)C(N)=O)C(=O)NCC(N)=O)NC(=O)[C@H](CC(N)=O)NC(=O)[C@H](CCC(N)=O)NC1=O [Compound 1, Glycinamide, L-cysteinyl-L-phenylalanyl-L-isoleucyl-L-glutaminyl-L-asparaginyl-L-cysteinyl-L-prolyl-N4-(phenylacetyl-O-methyl-D-tyrosyl-L-phenylalanyl-L-glutaminyl-L-asparaginyl-L-alanyl-L-prolyl-L-arginyl-L-isoglutamyl-N5-acetyl-L-lysyl-L-ε-lysyl)-L-2,4-diaminobutyryl-, cyclic (1→6)-disulfide] (I: H-CFIQNCP[Dab]G-NH2 / II: PhAc-[dY](Me)FQNAPR[isoGln]K(Ac)[εLys]; disulfide I:1-I:6; amide I:8-II:C)
reduction in cardiac output, mean ([1]; 0.9 mg i.v., echocardiography): 3%-12
individual decreases in cardiac output ([1]; any dose, i.v. and s.c., echocardiography): 20-25%
AE of moderate decreased cardiac output ([1]; i.v. 0.1 mg): One
subjects with hyperemia ([1]; i.v. 0.45 mg, 30 and 90 minutes): 1 subject
urinary volume ([1]; i.v. and s.c.): no apparent dose related trends or changes
cardiac output versus placebo ([1]; i.v., except 0.1 mg group): decreased
subjects with pallor ([1]; i.v., mainly 0.45, 0.6 and 0.9 mg): 18 subjects
cardiac output ([1]; s.c. 0.1 and 0.3 mg): slight reduction
subjects with pallor ([1]; s.c. 0.1 and 0.3 mg, after 1st dose): About 30%
CL renal ([2]; human, in vivo, iv, 0.1 mg, i.v. 0.1 mg, read-out: Renal CL, geometric mean (converted)): 14.5 mL/min
CL renal ([2]; human, in vivo, iv, 0.1 mg, i.v. 0.1 mg, read-out: Renal CL, mean (converted)): 14.5 mL/min
CL renal ([2]; human, in vivo, iv, 0.3 mg, i.v. 0.3 mg, read-out: Renal CL, geometric mean (converted)): 11 mL/min
CL renal ([2]; human, in vivo, iv, 0.3 mg, i.v. 0.3 mg, read-out: Renal CL, mean (converted)): 11 mL/min
CL renal ([2]; human, in vivo, iv, 0.45 mg, i.v. 0.45 mg, read-out: Renal CL, geometric mean (converted)): 14 mL/min
CL renal ([2]; human, in vivo, iv, 0.45 mg, i.v. 0.45 mg, read-out: Renal CL, mean (converted)): 14.8 mL/min
CL renal ([2]; human, in vivo, iv, 0.6 mg, i.v. 0.6 mg, read-out: Renal CL, geometric mean (converted)): 15.5 mL/min
CL renal ([2]; human, in vivo, iv, 0.6 mg, i.v. 0.6 mg, read-out: Renal CL, mean (converted)): 15.8 mL/min
CL renal ([2]; human, in vivo, iv, 0.9 mg, i.v. 0.9 mg, read-out: Renal CL, geometric mean (converted)): 14.8 mL/min
CL renal ([2]; human, in vivo, iv, 0.9 mg, i.v. 0.9 mg, read-out: Renal CL, mean (converted)): 15.8 mL/min
Vd ([2]; human, in vivo, iv, read-out: distribution volume (summary)): 15 to 20 L
terminal half-life (summary) ([2]; i.v.): about 1.5 hours
total clearance (summary) ([2]; i.v.): about 13 L/h
AUC, geometric mean ([2]; i.v. 0.1 mg): 6.96 ng·h/mL
AUC, mean ([2]; i.v. 0.1 mg): 7.01 ng·h/mL
Cmax, geometric mean ([2]; i.v. 0.1 mg): 1.18 ng/mL
Cmax, mean ([2]; i.v. 0.1 mg): 1.19 ng/mL
T1/2, harmonic mean ([2]; i.v. 0.1 mg): 1.2 h
Tot. CL, geometric mean ([2]; i.v. 0.1 mg): 14.4 L/h
Tot. CL, mean ([2]; i.v. 0.1 mg): 14.5 L/h
Vss, geometric mean ([2]; i.v. 0.1 mg): 21.7 L
Vss, mean ([2]; i.v. 0.1 mg): 21.8 L
tmax, mean ([2]; i.v. 0.1 mg): 5.4 h
tmax, median ([2]; i.v. 0.1 mg): 5.0 h
AUC, geometric mean ([2]; i.v. 0.3 mg): 24.6 ng·h/mL
AUC, mean ([2]; i.v. 0.3 mg): 24.9 ng·h/mL
Cmax, geometric mean ([2]; i.v. 0.3 mg): 4.45 ng/mL
Cmax, mean ([2]; i.v. 0.3 mg): 4.49 ng/mL
T1/2, harmonic mean ([2]; i.v. 0.3 mg): 1.2 h
Tot. CL, geometric mean ([2]; i.v. 0.3 mg): 12.2 L/h
Tot. CL, mean ([2]; i.v. 0.3 mg): 12.3 L/h
Vss, geometric mean ([2]; i.v. 0.3 mg): 14.5 L
Vss, mean ([2]; i.v. 0.3 mg): 15.0 L
tmax, mean ([2]; i.v. 0.3 mg): 5.2 h
tmax, median ([2]; i.v. 0.3 mg): 5.5 h
AUC, geometric mean ([2]; i.v. 0.45 mg): 34.1 ng·h/mL
AUC, mean ([2]; i.v. 0.45 mg): 34.5 ng·h/mL
Cmax, geometric mean ([2]; i.v. 0.45 mg): 6.20 ng/mL
Cmax, mean ([2]; i.v. 0.45 mg): 6.26 ng/mL
Tot. CL, geometric mean ([2]; i.v. 0.45 mg): 13.2 L/h
Tot. CL, mean ([2]; i.v. 0.45 mg): 13.3 L/h
Vss, geometric mean ([2]; i.v. 0.45 mg): 15.2 L
Vss, mean ([2]; i.v. 0.45 mg): 15.5 L
tmax, mean ([2]; i.v. 0.45 mg): 5.0 h
tmax, median ([2]; i.v. 0.45 mg): 5.0 h
AUC, geometric mean ([2]; i.v. 0.6 mg): 46.5 ng·h/mL
AUC, mean ([2]; i.v. 0.6 mg): 47.5 ng·h/mL
Cmax, geometric mean ([2]; i.v. 0.6 mg): 8.32 ng/mL
Cmax, mean ([2]; i.v. 0.6 mg): 8.45 ng/mL
Tot. CL, geometric mean ([2]; i.v. 0.6 mg): 12.9 L/h
Tot. CL, mean ([2]; i.v. 0.6 mg): 13.2 L/h
Vss, geometric mean ([2]; i.v. 0.6 mg): 15.4 L
Vss, mean ([2]; i.v. 0.6 mg): 16.3 L
tmax, mean ([2]; i.v. 0.6 mg): 5.4 h
tmax, median ([2]; i.v. 0.6 mg): 6.0 h
AUC, geometric mean ([2]; i.v. 0.9 mg): 71.8 ng·h/mL
AUC, mean ([2]; i.v. 0.9 mg): 72.5 ng·h/mL
Cmax, geometric mean ([2]; i.v. 0.9 mg): 12.7 ng/mL
Cmax, mean ([2]; i.v. 0.9 mg): 12.8 ng/mL
T1/2, harmonic mean ([2]; i.v. 0.9 mg): ~1.7 h
T1/2, mean ([2]; i.v. 0.9 mg): 2.0 h
Tot. CL, geometric mean ([2]; i.v. 0.9 mg): 12.5 L/h
Tot. CL, mean ([2]; i.v. 0.9 mg): 12.7 L/h
Vss, geometric mean ([2]; i.v. 0.9 mg): 15.3 L
Vss, mean ([2]; i.v. 0.9 mg): 15.5 L
tmax, mean ([2]; i.v. 0.9 mg): 5.3 h
tmax, median ([2]; i.v. 0.9 mg): 6.0 h
dose proportionality of AUC and Cmax ([2]; i.v., 0.1-0.9 mg): proportionality for both parameters
harmonic mean terminal half-life ([2]; i.v., dose groups other than 0.6 and 0.9 mg): 1.2 to 1.3 h
exposure (AUC, Cmax), women versus men ([2]; i.v., also s.c.): higher exposure in women than in men
terminal half-life ([2]; route not stated): 1.5 to 2 h
Ascites Volume ([3]; 100 μg/kg SC b.i.d., after 3 days (vehicle 18.6)): 6.0 mL
Body Weight ([3]; 100 μg/kg SC b.i.d., basal): 461 grs
Sodium Excretion ([3]; 100 μg/kg SC b.i.d., basal): 0.6 mEq/day
Urine Volume ([3]; 100 μg/kg SC b.i.d., basal): 9.7 mL/day
Body Weight ([3]; 100 μg/kg SC b.i.d., day 1): 402 grs
Sodium Excretion ([3]; 100 μg/kg SC b.i.d., day 1): 8.2 mEq/day
Urine Volume ([3]; 100 μg/kg SC b.i.d., day 1): 51.6 mL/day
Body Weight ([3]; 100 μg/kg SC b.i.d., day 2): 397 grs
Sodium Excretion ([3]; 100 μg/kg SC b.i.d., day 2): 1.1 mEq/day
Urine Volume ([3]; 100 μg/kg SC b.i.d., day 2): 21.8 mL/day
Body Weight ([3]; 100 μg/kg SC b.i.d., day 3): 396 grs
Sodium Excretion ([3]; 100 μg/kg SC b.i.d., day 3): 0.3 mEq/day
Urine Volume ([3]; 100 μg/kg SC b.i.d., day 3): 16.6 mL/day
effect on ascites ([3]; SC, three days): fully evacuated the ascites accumulated in the peritoneal cavity or markedly diminished ascites volume
